Reference: US20110039763A1, “TARGETED ANTIMICROBIAL MOIETIES” (C3 JIAN, INC., priority 2009, published 2011)

What was measured:
microorganisms [1] = test: Peptide activities: targeting/binding, antimicrobial, growth or phenotype altering (Tables 7, 8); assay type: cell-based; set-up: key: B: targeting/binding activity;; M: antimicrobial activity;; G: Growth or phenotype altering; details: peptides having multiple activities
microorganisms [2] = test: Morphology, biofilm and growth disrupting peptides (Table 5); assay type: cell-based; set-up: key: A: Peptide aggregates; B: Less hyphal formation; Clumps; Diffuse clumps and small polyps; F: Diffuse growth; H: Thin; I: Growth inhibition; Microcolony formation; Rippled; Small polyps; Thick; W: Halo formation on top, microlonies on bottom
Text: In certain embodiments peptides that induce alterations in phenotype or other biological activities can also be used as antimicrobial effector moieties.

Row | Substance | Activities (microorganisms [1]) | Organism, effect (microorganisms [2]; E. faecalis) | Organism, effect (microorganisms [2]; MRSA) | Organism, effect (microorganisms [2]; S. epidermidis) | Organism, effect (microorganisms [2]; S. pneumoniae) | Organism, effect (microorganisms [2]; E. coli) | also measured
1 | PF-410: peptide having multiple activities (chain 1 FALELIALCRNLFIVYFP; chain 2 FALELIALCRNLFIVYFP; Peptide with targeting and/or antimicrobial activity) | G B |  |  |  |  |  | Organism, effect: E. coli (microorganisms [2]; E. coli): E. coli (S); Organism, effect: E. faecalis (microorganisms [2]; E. faecalis): E. faecalis (C); Organism, effect: MRSA (microorganisms [2]; MRSA): MRSA (M); Organism, effect: S. epidermidis (microorganisms [2]; S. epidermidis): S. epidermidis (C)
2 | PF-411: peptide having multiple activities (chain 1 WVAVAILLNIALQTQLT; chain 2 WVAVAILLNIALQTQLT; Peptide with targeting and/or antimicrobial activity) | G B |  |  |  |  |  | Organism, effect: C. jejuni (microorganisms [2]; C. jejuni): C. jejuni (D); Organism, effect: E. coli (microorganisms [2]; E. coli): E. coli (C); Organism, effect: E. faecalis (microorganisms [2]; E. faecalis): E. faecalis (D); Organism, effect: MRSA (microorganisms [2]; MRSA): MRSA (D); Organism, effect: P. aeruginosa (microorganisms [2]; P. aeruginosa): P. aeruginosa (A); Organism, effect: S. epidermidis (microorganisms [2]; S. epidermidis): S. epidermidis (C); Organism, effect: S. pneumoniae (microorganisms [2]; S. pneumoniae): S. pneumoniae (D)
3 | PF-418: peptide having multiple activities (chain 1 FFLVHFYIRKRKGKVSIFLNYF; chain 2 FFLVHFYIRKRKGKVSIFLNYF; Peptide with targeting and/or antimicrobial activity) | G B |  |  |  |  |  | Organism, effect: C. jejuni (microorganisms [2]; C. jejuni): C. jejuni (D); Organism, effect: E. coli (microorganisms [2]; E. coli): E. coli (C); Organism, effect: E. faecalis (microorganisms [2]; E. faecalis): E. faecalis (D); Organism, effect: MRSA (microorganisms [2]; MRSA): MRSA (D); Organism, effect: S. epidermidis (microorganisms [2]; S. epidermidis): S. epidermidis (M); Organism, effect: S. pneumoniae (microorganisms [2]; S. pneumoniae): S. pneumoniae (D)
4 | PF-431: peptide having multiple activities (chain 1 VAYAAICWW; chain 2 VAYAAICWW; Peptide with targeting and/or antimicrobial activity) | G B | E. faecalis (R) | MRSA (C) | S. epidermidis (M) | S. pneumoniae (R) |  | Organism, effect (microorganisms [2]; C. jejuni): C. jejuni (R)
5 | PF-432: peptide having multiple activities (chain 1 FNGDSEFFLCIAF; chain 2 FNGDSEFFLCIAF; Peptide with targeting and/or antimicrobial activity) | G B | E. faecalis (D) | MRSA (M) | S. epidermidis (M) | S. pneumoniae (D) | E. coli (R) | Organism, effect (microorganisms [2]; C. jejuni): C. jejuni (D); Organism, effect (microorganisms [2]; P. aeruginosa): P. aeruginosa (A)
6 | PF-439: peptide having multiple activities (chain 1 RVLVLKKFHGIMDGNRNVAVFFVGQ; chain 2 RVLVLKKFHGIMDGNRNVAVFFVGQ; Peptide with targeting and/or antimicrobial activity) | G B | E. faecalis (C) | MRSA (M) | S. epidermidis (C) | S. pneumoniae (R) | E. coli (R) | 
7 | PF-440: peptide having multiple activities (MFIISPDLFNIAVILYILFFIHDILLLILS; Peptide with targeting and/or antimicrobial activity) | G B | E. faecalis (C) | MRSA (C) | S. epidermidis (C) | S. pneumoniae (R) | E. coli (R) | 
8 | PF-443: peptide having multiple activities (KLLYFFNYFENLQQVHLLVQL; Peptide with targeting and/or antimicrobial activity) | G B |  | MRSA (C) |  | S. pneumoniae (C) | E. coli (R) | 
9 | PF-450: peptide having multiple activities (HRNLIILQRTIFI; Peptide with targeting and/or antimicrobial activity) | G B | E. faecalis (C) | MRSA (C) |  | S. pneumoniae (C) |  | 
10 | PF-451: peptide having multiple activities (MVNYIIGSYMLYREQNNNEALRKFDITLAM; Peptide with targeting and/or antimicrobial activity) | G B | E. faecalis (C) | MRSA (C) | S. epidermidis (C) | S. pneumoniae (C) | E. coli (R) | 
11 | PF-454: peptide having multiple activities (MSVFVPVTNIFMFIMSPIFNVNLLHFKVYI; Peptide with targeting and/or antimicrobial activity) | G B | E. faecalis (C) | MRSA (C) | S. epidermidis (C) | S. pneumoniae (R) | E. coli (R) | Organism, effect (microorganisms [2]; P. aeruginosa): P. aeruginosa (H)
12 | PF-458: peptide having multiple activities (ISLIIFIMLFVVALFKCITNYKHQS; Peptide with targeting and/or antimicrobial activity) | G B |  | MRSA (M) |  | S. pneumoniae (M) |  | Organism, effect (microorganisms [2]; P. aeruginosa): P. aeruginosa (H)
13 | PF-460: peptide having multiple activities (MEHVLPFQNTPPNIVIIYKDFTHLKSITFS; Peptide with targeting and/or antimicrobial activity) | G B | E. faecalis (C) | MRSA (C) | S. epidermidis (C) | S. pneumoniae (R) | E. coli (H) | 
14 | PF-465: peptide having multiple activities (KPVGKALEEIADGKIEPVVPKEYLG; Peptide with targeting and/or antimicrobial activity) | G B |  |  |  | S. pneumoniae (H) |  | 
15 | PF-469: peptide having multiple activities (YKVNYNNIDNHFNTLRH; Peptide with targeting and/or antimicrobial activity) | G B | E. faecalis (D) | MRSA (D) | S. epidermidis (D) | S. pneumoniae (D) | E. coli (C) | Organism, effect (microorganisms [2]; C. jejuni): C. jejuni (D)
16 | PF-474: peptide having multiple activities (MHRNLVLVKMEPIPHIMIIANQIGIIIEKA; Peptide with targeting and/or antimicrobial activity) | G B | E. faecalis (C) | MRSA (D) | S. epidermidis (C) | S. pneumoniae (D) | E. coli (C) | Organism, effect (microorganisms [2]; C. albicans): C. albicans (B); Organism, effect (microorganisms [2]; C. jejuni): C. jejuni (D); Organism, effect (microorganisms [2]; P. aeruginosa): P. aeruginosa (A)
17 | PF-478: peptide having multiple activities (HLFILKSHLKPFPPFRYTYD; Peptide with targeting and/or antimicrobial activity) | G B |  | MRSA (H) | S. epidermidis (C) | S. pneumoniae (C) | E. coli (C) | 
18 | PF-479: peptide having multiple activities (AYILKRREEKNK; Peptide with targeting and/or antimicrobial activity) | G B |  |  |  | S. pneumoniae (C) |  | 
19 | PF-482: peptide having multiple activities (LVGYVRTSGTVRSYKIN; Peptide with targeting and/or antimicrobial activity) | G B |  |  |  | S. pneumoniae (S) |  | 
20 | PF-516: peptide having multiple activities (ASKQASKQASKQASKQ; Peptide with targeting and/or antimicrobial activity) | G |  |  |  | S. pneumoniae (H) |  | 
